Assay results published in the supplement of paper PMC10307832.

Experiments:
Test in all cases: relative viability (nuclei count vs DMSO), 5 days (fraction); higher = more cells survive
[1] = compound: COc1ccc(-c2ccc3c(N4CCOC[C@@H]4C)nc(N4CCOC[C@@H]4C)nc3n2)cc1CO [AZD8055] + CC(C)C[C@H](NC(=O)[C@H](Cc1ccccc1)NC(=O)c1cnccn1)B(O)O [Bortezomib] (partner 0.002 µM)
Summary of the method: (§1)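 Relative viability is defined as nuclei in treated wells over nuclei in vehicle wells. Duplicate plates were run and medians reported. Lung cancer cell lines in 1536-well plates were dosed by pin tool one day after seeding, with one drug or with a fixed anchor-drug dose plus five library-drug doses (not always all listed) in √10 steps, and nuclei were counted after 5 days.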

[2] = compound: COc1ccc(-c2ccc3c(N4CCOC[C@@H]4C)nc(N4CCOC[C@@H]4C)nc3n2)cc1CO [AZD8055] + CC1(C)CCC(c2ccc(Cl)cc2)=C(CN2CCN(c3ccc(C(=O)NS(=O)(=O)c4ccc(N[C@H](CCN5CCOCC5)CSc5ccccc5)c(S(=O)(=O)C(F)(F)F)c4)cc3)CC2)C1 [Navitoclax] (partner 0.5 µM)
Summary of the method: as §1

[3] = compound: COc1ccc(-c2ccc3c(N4CCOC[C@@H]4C)nc(N4CCOC[C@@H]4C)nc3n2)cc1CO [AZD8055] + Cc1nc(Nc2ncc(C(=O)Nc3c(C)cccc3Cl)s2)cc(N2CCN(CCO)CC2)n1 [Dasatinib] (partner 0.075 µM)
Summary of the method: as §1

[4] = compound: COc1ccc(-c2ccc3c(N4CCOC[C@@H]4C)nc(N4CCOC[C@@H]4C)nc3n2)cc1CO [AZD8055] + CCNC(=O)c1noc(-c2cc(C(C)C)c(O)cc2O)c1-c1ccc(CN2CCOCC2)cc1 [Luminespib] (partner 0.01 µM)
Summary of the method: as §1

Cell Line	relative viability ([1]; first compound 0.01 µM)	relative viability ([1]; first compound 0.03162 µM)	relative viability ([1]; first compound 0.1 µM)	relative viability ([1]; first compound 0.3162 µM)	relative viability ([1]; first compound 1 µM)	relative viability ([2]; first compound 0.01 µM)	relative viability ([2]; first compound 0.03162 µM)	relative viability ([2]; first compound 0.1 µM)	relative viability ([2]; first compound 0.3162 µM)	relative viability ([2]; first compound 1 µM)	relative viability ([3]; first compound 0.01 µM)	relative viability ([3]; first compound 0.03162 µM)	relative viability ([3]; first compound 0.1 µM)	relative viability ([3]; first compound 0.3162 µM)	relative viability ([3]; first compound 1 µM)	relative viability ([4]; first compound 0.01 µM)	relative viability ([4]; first compound 0.03162 µM)	relative viability ([4]; first compound 0.1 µM)	relative viability ([4]; first compound 0.3162 µM)	relative viability ([4]; first compound 1 µM)
NCI-H1651	1.12	0.914	0.924	0.609	0.696	1.08	0.879	0.622	0.52	0.282	0.455	0.368	0.307	0.226	0.253	0.925	0.798	0.779	0.412	0.313
NCI-H1666	0.932	0.65	0.62	0.483	0.469	0.878	0.819	0.731	0.561	0.417	0.928	0.853	0.739	0.698	0.579	1.06	1.03	0.977	0.772	0.693
NCI-H1734	0.954	0.729	0.552	0.278	0.274	1.04	0.742	0.472	0.316	0.173	0.563	0.366	0.318	0.152	0.162	0.199	0.167	0.194	0.151	0.183
NCI-H1755	0.98	0.879	0.75	0.459	0.359	0.953	0.71	0.687	0.296	0.307	0.414	0.32	0.262	0.263	0.249	0.43	0.417	0.361	0.263	0.251
NCI-H1792	0.93	0.771	0.827	0.173	0.189	0.89	0.518	0.51	0.13	0.086	0.844	0.667	0.583	0.321	0.237	0.38	0.415	0.218	0.295	0.127
NCI-H1915	1.09	0.961	1.02	0.663	0.652	0.853	0.769	0.81	0.757	0.509	0.27	0.297	0.281	0.177	0.174	0.777	0.727	0.598	0.5	0.322
NCI-H1975	0.409	0.303	0.282	0.206	0.216	0.967	0.91	0.802	0.279	0.247	0.34	0.265	0.129	0.132	0.135	0.2	0.155	0.186	0.149	0.147
NCI-H1993	0.886	0.706	0.599	0.568	0.586	0.785	0.681	0.649	0.665	0.56	0.528	0.448	0.505	0.524	0.542	0.74	0.593	0.497	0.402	0.471
